Experimental findings from paper PMC6275946 (ACS Omega, 2018) are described below.

Experiment [1] has as its target T1, SHP1 (Src-homology-2-domain containing protein tyrosine phosphatase 1) (Homo sapiens, UniProt P29350).
T1 sequence (P29350 244-515 limits assumed): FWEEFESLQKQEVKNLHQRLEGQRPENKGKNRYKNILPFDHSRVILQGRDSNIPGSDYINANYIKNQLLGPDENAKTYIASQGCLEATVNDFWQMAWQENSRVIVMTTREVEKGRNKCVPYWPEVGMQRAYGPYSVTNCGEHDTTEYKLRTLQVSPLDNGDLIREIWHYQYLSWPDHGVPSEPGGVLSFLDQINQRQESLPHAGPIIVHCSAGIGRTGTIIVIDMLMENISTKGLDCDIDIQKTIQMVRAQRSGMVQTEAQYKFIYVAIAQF
Nature of the experiment: pNPP phosphatase assay, […] compound, […] h preincubation at […] °C. It is filed as biochemical.

For experiment [2], the target named is SHP2 (Src-homology-2-domain-containing PTP 2) (Homo sapiens, UniProt Q06124). Nature of the experiment: LC-MS/MS of covalent cysteine labeling. The experiment is classed as biochemical.
Chain of SHP2 (Src-homology-2-domain-containing PTP 2) (Q06124 1-541): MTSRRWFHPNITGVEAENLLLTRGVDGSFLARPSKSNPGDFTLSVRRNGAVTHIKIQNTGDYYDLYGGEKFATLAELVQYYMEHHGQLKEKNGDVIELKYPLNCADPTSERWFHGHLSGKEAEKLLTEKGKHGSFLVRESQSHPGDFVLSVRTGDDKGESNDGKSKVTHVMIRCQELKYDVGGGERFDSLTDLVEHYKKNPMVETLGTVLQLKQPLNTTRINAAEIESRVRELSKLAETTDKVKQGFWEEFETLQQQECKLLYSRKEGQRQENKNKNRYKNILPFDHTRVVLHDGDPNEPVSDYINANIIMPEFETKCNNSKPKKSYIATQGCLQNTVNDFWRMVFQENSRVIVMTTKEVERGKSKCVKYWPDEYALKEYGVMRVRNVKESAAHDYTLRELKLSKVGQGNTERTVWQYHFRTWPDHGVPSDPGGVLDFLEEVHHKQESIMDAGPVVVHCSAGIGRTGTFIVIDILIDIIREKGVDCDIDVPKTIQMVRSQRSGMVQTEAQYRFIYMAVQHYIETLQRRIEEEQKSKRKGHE

With `C=CC(=O)Nc1ccnc2ccccc12` [compound 12, N-(Quinolin-4-yl)prop-2-enamide], the “pNPP phosphatase assay, 50 μM compound, 4 h preincubation at 37 °C” value in experiment [1] was “the only two human PTPs that have cysteine at this position, SHP2 and SHP1, are sensitive to inhibition”. Also, the IC50 (commonly the concentration at which inhibition is half-maximal) in experiment [2] is about 35 µM.
